Source: patent US9775903B2, “1-deoxy analogs of 1,25-dihydroxyvitamin D3 compounds” (JOHNS HOPKINS UNIVERSITY, priority 2010, dated 2017)
pIC50: −log10 of the molar value.

How the values were obtained:
[1] = target: T1, VDR (Homo sapiens, UniProt P11473); details: relative to active Vitamin D hormones / 1,25-hydroxyvitamin D3; cited from earlier work
T1 sequence (P11473 1-427): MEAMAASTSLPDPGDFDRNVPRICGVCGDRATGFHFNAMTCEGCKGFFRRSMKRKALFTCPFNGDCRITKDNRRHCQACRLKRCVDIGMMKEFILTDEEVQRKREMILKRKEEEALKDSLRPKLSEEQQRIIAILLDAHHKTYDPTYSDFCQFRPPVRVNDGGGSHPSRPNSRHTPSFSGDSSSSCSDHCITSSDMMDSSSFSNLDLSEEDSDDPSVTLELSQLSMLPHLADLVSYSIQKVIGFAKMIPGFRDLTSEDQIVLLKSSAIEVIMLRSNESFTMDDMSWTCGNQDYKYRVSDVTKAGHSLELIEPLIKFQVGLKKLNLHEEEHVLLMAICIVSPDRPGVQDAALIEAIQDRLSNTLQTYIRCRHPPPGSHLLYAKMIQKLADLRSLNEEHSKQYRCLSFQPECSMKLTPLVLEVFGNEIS

[2] = target: T1, VDR; assay: Binding to the Vitamin D Receptor (competition with [26,27-methyl-3H]-1α,25(OH)2D3)
Method: Unbound radioactive ligand was removed by incubation with dextran-charcoal for 30 min on ice and pelleted by centrifugation at 2000 rpm for 10 min at 4° C. The radioactivity in 100 mL of the supernatant was measured using a scintillation counter. The control reactions contained either no VDR protein (background) or no competing ligand (maximum binding). The mean background binding was subtracted and the data divided by the mean maximum binding to yield B/Bmax values. The concentration necessary to displace 50% of [26,27-methyl-^3H]-1α,25(OH)2D3 from VDR was calculated as the B50.

[3] = test system: CYP24 expression in PMA-stimulated U937 cells; assay: CYP24 expression in PMA-stimulated U937 cells, which do not substantially express CYP27B1; assay type: cell-based, human; details: concentrations up to 100 nM, 6 hr
Method: PMA-stimulated U937 cells were maintained in RPMI media supplemented with 10 mM HEPES, 1 mM sodium pyruvate, 0.1 mM non-essential amino acids and 10% Fetal Bovine Serum at optimal cell density (between 1×10^5 cells/mL and 2×10^6 cells/mL). Prior to treatment, cells were pelleted by centrifugation and resuspended to a concentration of 5×10^5 cells/mL. Cells were then treated with phorbol myristate acetate (PMA) at a final concentration of 20 ng/ml. To each well of a 24-well plate, 1 ml of cell suspension was added, which was incubated overnight at 37° C.+5% CO2. The following day, RPMI media was replaced with fresh media and cells were treated in triplicate with vehicle or compounds at various concentrations (10^-7 to 10^-9 M) for 6 hr at 37° C. Media was removed and extraction of cellular RNA was performed using Trizol® (Invitrogen). Aliquots of RNA were reverse-transcribed to cDNA using oligo dT primers and Thermoscript reverse transcriptase according to the manufacturer's instructions (Invitrogen). Quantitative real-time PCR was performed using an ABI StepOnePlus system using the Taqman Universal PCR Master Mix. PCR reaction volumes of 20 μl were used with 50 cycles of amplification. Each cDNA sample was tested in duplicate using TaqMan® gene expression assays with the following ID numbers: human GAPDH (Hs99999905_m1), human CYP24 (Hs00167999_m1). The real-time PCR results were analyzed using the StepOne system software V2.1. Gene expression levels were calculated using the comparative CT method, and normalized to the GAPDH expression levels. The U937 cells have a low level of expression of CYP27B1 mRNA, for example compared to HPK1a-ras cells.

[4] = test system: CYP24 transcription in HPK1a-ras cells; assay: CYP24 transcription in HPK1a-ras cells (real-time PCR); assay type: cell-based, human; details: for concentration at which significant transcriptional activity (CYP24) is displayed / CYP24 transcription activity (in words): HPK1a-ras cells; for concentration at which significant transcriptional activity (CYP24) is displayed: 6 hr; for CYP24 transcription activity (in words): which express CYP27B1; for induction of CYP24 transcription compared to vehicle: 6 or 7 hours
Method: (§1) HPK1a-ras cells were maintained in Dulbecco's Modified Eagle's medium (DMEM) supplemented with 10% Fetal Bovine Serum and plated at 1×10^5 cells/well in 24-well plates. The media was exchanged after 24 hours for DMEM containing 1% Bovine Serum Albumin. Cells were treated in duplicate with Ibii and control compounds at various concentrations (10^−6 to 10^−9M) for 6 or 7 hours. Extraction of cellular RNA was performed using Trizol® (Invitrogen). Aliquots of RNA were reverse-transcribed to cDNA using random hexamers and Thermoscript reverse transcriptase according to the manufacturer's instructions (Invitrogen). Quantitative real-time PCR was performed using an ABI StepOnePlus system using the Taqman Universal PCR Master Mix. PCR reaction volumes of 20 μL were used with 50 cycles of amplification. Each cDNA sample was tested in duplicate using TaqMan® gene expression assays with the following ID numbers: human GAPDH (Hs99999905_m1), human CYP24 (Hs00167999_m1). The real-time PCR results were analyzed using the StepOne system software V2.1. Gene expression levels were calculated using the comparative CT method, and normalized to the GAPDH expression levels.
(§2) CYP24a1 transcription activity in HPK1a-ras cells was determined for prodrugs Iaii and IIaii. As with the protocol described in Example 7, HPK1a-ras cells were maintained in Dulbecco's Modified Eagle's medium (DMEM) supplemented with 10% Fetal Bovine Serum and plated at 1×10^5 cells/well in 24-well plates. Prior to treatment with compounds, cells were washed with PBS and replaced with DMEM containing 1% Bovine Serum Albumin. Cells were treated in duplicate with vehicle or compounds at various concentrations (10^-6 to 10^-9 M) for 6 hr at 37° C. Media was removed and extraction of cellular RNA was performed using Trizol® (Invitrogen). Aliquots of RNA were reverse-transcribed to cDNA using oligo dT primers and Thermoscript reverse transcriptase according to the manufacturer's instructions (Invitrogen). Quantitative real-time PCR was performed using an ABI StepOnePlus system using the Taqman Universal PCR Master Mix. PCR reaction volumes of 20 μl were used with 50 cycles of amplification. Each cDNA sample was tested in duplicate using TaqMan® gene expression assays with the following ID numbers: human GAPDH (Hs99999905_m1), human CYP24 (Hs00167999_m1). The real-time PCR results were analyzed using the StepOne system software V2.1. Gene expression levels were calculated using the comparative CT method, and normalized to the GAPDH expression levels

[5] = Body weight in vitamin D deficient rats; assay type: in vivo, Sprague Dawley rats; details: IV and oral, 160 μg/kg
Method: (§3) Vitamin D deficient Sprague Dawley rats were treated with Ibii 3×/week for five days by IV and oral routes, according to the Table below: […]

[6] = test system: PTH; assay: Serum PTH in adenine-induced uremic rats; assay type: in vivo, male Sprague-Dawley rats; details: adenine treated rats
Source text: (§4) Day 0 is the first day of dosing.

[7] = test system: CYP27b1 transcription in HPK1a-ras cells; assay: CYP27b1 transcription in HPK1a-ras cells (real-time PCR); assay type: cell-based, human
Method: as §1, with “duplicate.” for “duplicate using TaqMan® gene expression assays with the following ID numbers: human GAPDH (Hs99999905_m1), human CYP24 (Hs00167999_m1).”

[8] = test system: FGF23; assay: Serum FGF23 in adenine-induced uremic rats; assay type: in vivo, male Sprague-Dawley rats; details: adenine treated rats, i.v. 0.2-10 mcg/kg, three times per week for two weeks
Source text: as §4

[9] = test system: PTH; assay: PTH in vitamin D deficient rats, IV and oral dosing; assay type: in vivo, Sprague Dawley rats; details: 160 μg/kg, 3×/week for five days
Method: as §3

[10] = target: T2, CYP24 (Homo sapiens, UniProt Q07973); assay: CYP24 inhibitory activity: CYP24a1 transcription in HPK1a-ras cells treated with calcitriol plus test compound; assay type: cell-based; details: 1 μM analog with 0.1 nM or 1 nM calcitriol, 6 hours
T2 construct: CYP24a1 relative transcription in HPK1a-ras cells treated for 6 hours with calcitriol; endogenous in cells; host or cells: HPK1a-ras cells
T2 sequence (Q07973 36-514): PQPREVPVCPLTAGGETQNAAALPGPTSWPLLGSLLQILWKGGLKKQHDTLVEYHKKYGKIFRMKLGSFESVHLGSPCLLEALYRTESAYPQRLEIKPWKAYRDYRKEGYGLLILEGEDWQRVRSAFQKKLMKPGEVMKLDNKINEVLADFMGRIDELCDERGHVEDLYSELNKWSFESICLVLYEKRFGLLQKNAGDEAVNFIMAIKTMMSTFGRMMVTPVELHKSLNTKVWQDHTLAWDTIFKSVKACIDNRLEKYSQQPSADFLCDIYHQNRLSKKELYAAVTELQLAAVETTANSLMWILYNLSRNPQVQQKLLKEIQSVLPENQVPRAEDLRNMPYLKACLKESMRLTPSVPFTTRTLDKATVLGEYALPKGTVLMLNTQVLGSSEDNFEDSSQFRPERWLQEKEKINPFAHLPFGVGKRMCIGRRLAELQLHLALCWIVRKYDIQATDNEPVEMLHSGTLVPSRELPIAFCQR
Method: as §2, with “Aliquots of RNA were reverse-transcribed to cDNA using oligo dT primers and Thermoscript reverse transcriptase according to the manufacturer's instructions (Invitrogen).” left out, “PCR reaction volumes of 20 μl were used with 50 cycles of amplification. Each cDNA sample was tested in duplicate using TaqMan® gene expression assays with the following ID numbers: human GAPDH (Hs99999905_m1), human CYP24 (Hs00167999_m1).” left out
Transcriptional activity of calcitriol and Prodrugs was determined by CYP24a1 relative transcription in HPK1a-ras cells treated for 6 hours with calcitriol, combinations of calcitriol with Prodrugs Icii, Idii, and Ieii, and combinations of calcitriol with 1-hydroxylated active forms of Prodrugs Icii, Idii, and Ieii which are known CYP24 inhibitors.

CYP24 inhibitory effect (increased CYP24a1 transcription with calcitriol) [10] | SMILES | binding to the VDR (in words) [2] | relative CYP24 expression (compared to calcitriol) [3] | concentration at which significant transcriptional activity (CYP24) is displayed [4] | CYP24 transcription activity (in words) [4] | also measured
– | C=C1CC[C@H](O)C/C1=C/C=C1\CCC[C@]2(C)C([C@H](C)CCCC(C)(C)O)CC[C@@H]12 (stereo partly drawn) [25-hydroxyvitamin D3] | – | – | – | – | affinity for the VDR, fold lower than the active Vitamin D hormone [1]: 100 fold
– | C=CCO/N=C(\CCC[C@@H](C)C1=CC[C@H]2/C(=C/C=C3/C[C@@H](O)CCC3=C)CCC[C@]12C)C(C)(C)C [Prodrug IIaii, 7-{4-[2-(5-Hydroxy-2-methylene-cyclohexylidene)-ethylidene]-7α-methyl-3α,4,5,6,7,7a-hexahydro-3H-inden-1-yl}-2,2-dimethyl-octan-3-one 0-allyl-oxime] | do not bind to the VDR | inactive | 1000 nM | active | –
– | C=C1CCC(O)CC1=CC=C1CCCC2(C)C1CCC2C(C)CCC(F)(F)S(=O)(=O)C(C)(C)C (stereo not drawn) [Prodrug Iaii, 3-(2-{1-[4,4-Difluoro-1-methyl-4-(2-methyl-propane-2-sulfonyl)-butyl]-7α-methyl-3,3α,5,6,7,7a-hexahydro-inden-4-ylidene}-ethylidene)-4-methylene-cyclohexanol] | do not bind to the VDR | inactive | 1000 nM | active | –
– | C=C1CCC(O)CC1=CC=C1CCCC2(C)C(C(C)CC=CS(=O)(=O)C(C)(C)C)=CCC12 (stereo not drawn) [Prodrug Ibii, 4-Methylene-3-(2-{7α-methyl-1-[1-methyl-4-(2-methyl-propane-2-sulfonyl)-but-3-enyl]-3,3α,5,6,7,7a-hexahydro-inden-4-ylidene}-ethylidene)-cyclohexanol] | – | inactive | 100 nM | – | pIC50 ([2]; read-out: B50 (concentration necessary to displace 50% of [26,27-methyl-3H]-1α,25(OH)2D3 from VDR), in vitro, human recombinant VDR): < 6.00; effects on body weight (overt toxicity) [5]: does not exhibit overt toxicity; potency in decreasing circulating iPTH levels versus the 1-hydroxy active form ([6]; i.v.): comparable to but lower than the 1-hydroxy active form; circulating iPTH levels in serum ([6]; i.v. 0.2-10 mcg/kg, three times per week for two weeks): can lower circulating iPTH levels; transcription of CYP27b1 compared to vehicle [7]: not significantly affected; effect on serum FGF23 levels [8]: does not increase serum FGF23 levels; induction of CYP24 transcription compared to vehicle ([4]; 100 nM, HPK1aRas cells): about 100 fold; induction of CYP24 transcription compared to vehicle ([4]; 1 μM, HPK1aRas cells): about 500 fold; potency in CYP24 transcription relative to its 1-hydroxylated analog ([4]; HPK1aRas cells): about 1/100; induction of CYP24A1 transcription at lower concentrations ([4]; concentrations below 100 nM, HPK1aRas cells): did not significantly induce; effect on PTH ([9]; intravenous): can effectively lower PTH; effect on PTH ([9]; oral): can effectively lower PTH
CYP24 inhibitory effect | C=C1CCC(O)CC1=CC=C1CCCC2(C)C1CCC2C(C)CCCS(=N)(=O)c1ccccc1 (stereo not drawn) [Prodrug Icii, 3-{2-[1-(4-Benzenesulfoximine-1-methyl-butyl)-7α-methyl-octahydro-inden-4-ylidene]-ethylidene}-4-methylene-cyclohexanol] | – | inactive | – | – | –
CYP24 inhibitory effect | C=C1CCC(O)CC1=CC=C1CCCC2(C)C1CCC2C(C)CCS(=O)(=O)c1ccccc1 (stereo not drawn) [Prodrug Idii, 3-{2-[1-(3-Benzenesulfonyl-1-methyl-propyl)-7α-methyl-octahydro-inden-4-ylidene]-ethylidene}-4-methylene-cyclohexanol] | – | inactive | – | – | –
